Test results as given in patent US20240156889A1, “A METHOD FOR REDUCING ANIMAL WEIGHT” (BEIJING WEHAND-BIO PHARMACEUTICAL CO., LTD, priority 2021, published 2024).

Test: Clinical Experiment 2: weight of type 2 diabetics, acarbose-controlled double-blind study
Format: in vivo, human
Conditions: SZ-A = tablets of Embodiment 1 extract, 50 mg total alkaloids each
Description: • 1. Objective • Effect of Ramulus Mori extract on reducing weight of diabetics. • 2. Experiment method • 2.1 Grouping • Random, double-blind and double-simulation, parallel control of acarbose tablets, multicenter, non-inferiority were adopted in the study design. A total of 600 patients with type 2 diabetes (aged 18 to 70 years old, 19 kg/m^2≤BMI≤30 kg/m^2, 7%≤HbAlC≤10%) and poor blood glucose control were included, and were randomly divided into a total alkaloid tablet group (SZ-A, N=360) and a acarbose (Glucobay®) group (CON, N=240). All signed informed consents. […] (1) From the Pt to the 24th week of administration, the height, weight and weight gain of each group were observed and recorded every day. […]

For `C[C@H]1O[C@H](O[C@H]2[C@H](O)[C@@H](O)[C@@H](O[C@H]3[C@H](O)[C@@H](O)C(O)O[C@@H]3CO)O[C@@H]2CO)[C@H](O)[C@@H](O)[C@@H]1N[C@H]1C=C(CO)[C@@H](O)[C@H](O)[C@H]1O` (some centres unmarked) [acarbose], the “average change of weight” value (type 2 diabetics with BMI≥28 kg/m^2, after 8 weeks of administration) was 0.210 kg and the “average change of weight” value (type 2 diabetics with BMI≥28 kg/m^2, after 24 weeks of administration) was -0.182 kg.
